# Data: patent US6878722B2, “Substituted cycloalkyl P1′ hepatitis C virus inhibitors” (Bristol-Myers Squibb Company, priority 2002, dated 2005)
# What was measured:
# [1] = target: T1, HCV NS3/4A protease complex (BMS strain, genotype 1a) (Hepatitis C virus genotype 1a, UniProt P27958, C1454S); assay: Recombinant HCV NS3/4A protease complex FRET peptide assay, BMS strain; assay type: biochemical; settings: IC50 range, NS3/4A BMS Strain
# T1 construct: DNA encoding the recombinant HCV NS3/4A protease complex (amino acids 1027 to 1711) for these strains; inferred from the pET21b vector and Ni-NTA purification; made in house; host or cells: Escherichia coli BL21 (DE3), pET21b
# Summary of the method: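 Recombinant NS3/4A complex (aa 1027–1711) with C-terminal three-lysine tail, C1711G and C1454S, expressed in E. coli BL21(DE3) and purified by Ni-NTA then Superdex-S200. Inhibition of the complex from each strain measured in vitro by FRET peptide cleavage.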
# [2] = test system: HCV replicon in Huh7 cells; assay: HCV replicon cell-based assay (FRET); settings: Hepatitis C virus, Huh-7; HCV replicon; read-out: EC50 range
# Summary of the method: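 Huh7 cells stably carrying a genotype 1b HCV replicon (IRES-neo-EMCV-IRES-NS3-NS5B) were treated with compound for 4 days at 37 °C in 0.5% DMSO final. Lysates containing 10 μM FRET peptide RET S1 were read kinetically at 340/490 nm to give NS3 protease activity, from which EC50 was derived.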
# T1 sequence (P27958 1658-1714, looked up, stated change not applied): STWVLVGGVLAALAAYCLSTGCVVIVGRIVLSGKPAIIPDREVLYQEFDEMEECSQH
# T1 sequence (P27958 1027-1657, looked up, stated change not applied): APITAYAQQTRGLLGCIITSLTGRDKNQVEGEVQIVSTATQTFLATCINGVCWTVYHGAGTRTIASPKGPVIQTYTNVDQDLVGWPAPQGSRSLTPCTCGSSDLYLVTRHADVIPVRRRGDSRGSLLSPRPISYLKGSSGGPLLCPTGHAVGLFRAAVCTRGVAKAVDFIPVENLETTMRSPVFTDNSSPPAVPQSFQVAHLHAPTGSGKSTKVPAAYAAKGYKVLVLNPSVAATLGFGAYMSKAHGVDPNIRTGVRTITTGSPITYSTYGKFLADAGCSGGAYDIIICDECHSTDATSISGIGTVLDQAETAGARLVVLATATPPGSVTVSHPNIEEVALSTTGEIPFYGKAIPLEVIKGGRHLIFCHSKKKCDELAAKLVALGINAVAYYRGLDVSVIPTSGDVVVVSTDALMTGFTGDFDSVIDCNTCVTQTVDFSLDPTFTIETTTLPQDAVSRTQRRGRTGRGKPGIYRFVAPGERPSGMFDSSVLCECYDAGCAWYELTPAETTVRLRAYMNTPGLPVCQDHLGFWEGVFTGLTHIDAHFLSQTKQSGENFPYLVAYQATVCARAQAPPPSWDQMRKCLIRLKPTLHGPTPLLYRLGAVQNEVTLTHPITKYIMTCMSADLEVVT
Compound,IC50 [1],EC50 [2]
"C=C[C@@H]1C[C@]1(NC(=O)[C@@H]1C[C@@H](Oc2cc(-c3ccccc3)nc3cc(OC)ccc23)CN1C(=O)[C@@H](NC(=O)C1CCOCC1)C(C)(C)C)C(=O)NS(=O)(=O)C1(Cc2ccccc2)CC1 [Compound 60, 1-{3,3-Dimethyl-2-[(tetrahydro-pyran-4-carbonyl)-amino]-butyryl}-4-(7-methoxy-2-phenyl-quinolin-4-yloxy)-pyrrolidine-2-carboxylic acid [1-(1-benzyl-cyclopropanesulfonylaminocarbonyl)-2-vinyl-cyclopropyl]-amide]",< 0.05 µM,0.5 to 5 µM
"C=CC1C[C@]1(NC(=O)[C@@H]1C[C@@H](Oc2cc(-c3ccccc3)nc3cc(OC)ccc23)CN1C(=O)[C@@H](NC(=O)OC(C)(C)C)C(C)(C)C)C(=O)NS(=O)(=O)C1(Br)CC1 (stereo partly shown) [Compound 11, {1-[2-[1-(1-Bromocyclopropanesulfonylaminocarbonyl)-2-vinylcy-clopropylcarbamoyl]-4-(7-methoxy-2-phenylquinolin-4-yloxy)pyrrolidine-1-carbonyl]-2,2-dimethylpropyl}-carbamic acid tert-butyl ester]",< 0.05 µM,< 0.05 µM
C=C[C@@H]1C[C@]1(NC(=O)[C@@H]1C[C@@H](Oc2cc(-c3ccccc3)nc3cc(OC)ccc23)CN1C(=O)[C@@H](NC(=O)CC(C)(C)C)C(C)(C)C)C(=O)NS(=O)(=O)C1(Cc2ccccc2)CC1 [Compound 110],0.05 to 0.5 µM,0.05 to 0.5 µM
C=C[C@@H]1C[C@]1(NC(=O)[C@@H]1C[C@@H](Oc2cc(-c3ccccc3)nc3cc(OC)ccc23)CN1C(=O)[C@@H](NC(=O)OC(C)(C)C)C(C)(C)C)C(=O)NS(=O)(=O)C1(CC)CC1 [Compound 28],< 0.05 µM,< 0.05 µM
"C=C[C@@H]1C[C@]1(NC(=O)[C@@H]1C[C@@H](Oc2cc(-c3ccccc3)nc3cc(OC)ccc23)CN1C(=O)[C@@H](NC(=O)OC(C)(C)C)C(C)(C)C)C(=O)NS(=O)(=O)C1(Cc2c(C)noc2C)CC1 [Compound 50, {1-[2-{1-[1-(3,5-Dimethyl-isoxazol-4-ylmethyl)-cyclopropanesulfonylaminocarbonyl]-2-vinyl-cyclopropylcarbamoyl}-4-(7-methoxy-2-phenyl-quinolin-4-yloxy)-pyrrolidine-1-carbonyl]-2,2-dimethyl-propyl}-carbamic acid tert-butyl ester]",0.05 to 0.5 µM,0.5 to 5 µM
"COc1ccc2c(O[C@@H]3C[C@@H](C(=O)NC4(C(=O)NS(=O)(=O)C5(CC6CC6)CC5)CC45CC5)N(C(=O)[C@@H](NC(=O)OC(C)(C)C)C(C)(C)C)C3)cc(-c3ccccc3)nc2c1 (mixture of isomers) [Compound 202, {1-[2-[1-(1-Cyclopropylmethyl-cyclopropanesulfonylaminocarbonyl)-spiro[2.2]pent-1-ylcarbamoyl]-4-(7-methoxy-2-phenyl-quinolin-4-yloxy)-pyrrolidine-1-carbonyl]-2,2-dimethyl-propyl}-carbamic acid tert-butyl ester]",0.05 to 0.5 µM,0.5 to 5 µM
"C=C[C@@H]1C[C@]1(NC(=O)[C@@H]1C[C@@H](Oc2cc(-c3ccccc3)nc3cc(OC)ccc23)CN1C(=O)[C@@H](NC(=O)OC(C)(C)C)C(C)(C)C)C(=O)NS(=O)(=O)C1(Cc2cc(C)on2)CC1 [Compound 51, [1-(4-(7-Methoxy-2-phenyl-quinolin-4-yloxy)-2-{1-[1-(5-methyl-isoxazol-3-ylmethyl)-cyclopropanesulfonylaminocarbonyl]-2-vinyl-cyclopropylcarbamoyl}-pyrrolidine-1-carbonyl)-2,2-dimethyl-propyl]-carbamic acid tert-butyl ester]",< 0.05 µM,< 0.05 µM
CCCC1(S(=O)(=O)NC(=O)[C@@]2(NC(=O)[C@@H]3C[C@@H](Oc4cc(-c5ccccc5)nc5cc(OC)ccc45)CN3C(=O)[C@@H](NC(=O)OC(C)(C)C)C(C)(C)C)CC2C2CC2)CC1 (stereo partly shown) [Compound 203],< 0.05 µM,0.05 to 0.5 µM
